Data: patent US20170249408A1, “Antiperspirant and Deodorant Compositions Comprising Malodor Reduction Compositions” (The Procter & Gamble Company, priority 2015, published 2017)

Test: Blocker Index (BI), expert graders, isovaleric acid malodorous swatch
Design: key: Blocker Index, expert-graded scale 0 to 3 (0 = clean swatch anchor)
Description: Blocker materials suitable for use in consumer products of the present invention are chosen for their ability to decrease malodor, while not interfering with perception of a fragrance. Material selection is done by assigning two indices to a test sample material from two reference scales in order to rank odor strengths. The two reference scales are the Fragrance Fidelity Index (FFI) scale and the Blocker Index (BI) scale. The FFI ranks the ability of the test sample material to impart a perceivable odor which could cause interference when combined with another fragrance and the BI ranks the ability of the test sample material to reduce malodor perception. The two methods for assigning the indices to a test sample on the FFI and the BI reference scales are given below.
The first step in the method for assigning a BI to a test sample material on the BI reference scale is to create the BI reference swatches. […] Fabric swatches for this test are white knit polycotton (4 inch×4 inch) swatches from EMC ordered as PC 50/50. The supplier is instructed to strip the swatches first, stripping involves washing twice with a fragrance-free detergent and rinsing three times.
The BI scale contains one clean swatch with no malodor applied. […] These solutions are pipetted to the middle of the swatches. […] After drying for 30 minutes in a vented hood, the swatches are wrapped in aluminum foil to prevent odor contamination to the treated swatch. A clean untreated swatch is also included as the lowest anchor point of reference for malodor strength on the BI scale. The BI reference scale swatches should be used within 0.5 to 12 hours and discarded after 12 hours. The swatches are used as scale anchor points when graders evaluate a test sample(s) and are assigned a Blocker Index (BI) as show in Table 12.
The perfumer/expert grader is asked to rank order swatches according to a scale between 0 and 3.
To evaluate the BI, the test material is applied to a malodorous swatch to determine how well the test material blocks the malodor. […] After drying the malodorous swatch a known concentration of test material solution, between 1 ppm and 100 ppm is pipetted onto the malodorous swatch. […] It is sometimes necessary to evaluate several levels of the test material between about 1 and about 100 ppm to determine the BI.
At least two perfumers/expert graders are used to assign the BI to the test sample. […] The test sample swatch is assigned a BI at or between numbers on the BI in table.

[1] = Conc 50 ppm of test material on isovaleric acid malodorous swatch
[2] = Conc 10 ppm of test material on isovaleric acid malodorous swatch
[3] = test material Conc 10 ppm on isovaleric acid swatch
[4] = test material Conc 50 ppm on isovaleric acid swatch

Compound	BI [1]	BI [2]	BI [3]	BI [4]
C=CC(C)=CCC=C(C)C [Material 524]	2.8			
CC(=O)OCCCCCCC(C)C [Material 204]	2.7	2.0		
CCOC(=O)OC1C(C)CCC(C)C1C (stereo not shown) [Material 1005]	2.6			
C=C1CCC2OC2(C)CCC2C1CC2(C)C (stereo not shown) [Material 1148]	2.3			
CC(CCO)CCc1ccccc1 (stereo not shown) [Material 962]	1.7	2.3		
CCCCCCCCCCCC(=O)OCC [Material 391]	2.2			
CC1(C)C2CCC3(C2)C1C(=O)CCC3(C)C (stereo not shown) [Material 1149]	2.3	1.5		
CCC(O)COC1CCCCC1C(C)(C)C (stereo not shown) [Material 677]	2.0	2.3		
CC1CCC2(C(C)C)CC(C)OC2C1 (stereo not shown) [4,8-dimethyl-1-(methylethyl)-7-oxybiciclo[4.3.0]nonane]			2.0	2.2
CCCCCCCCCCCCCCCC(=O)OC [Material 109]		2.0		
CC(C)(C)C1CCCCC1 [4-tert-butyl cyclohexane]	2.0	2.0		
O=C1CCC2CCCCC2O1 (stereo not shown) [3,4,4a,5,6,7,8,8a-octahydrochromen-2-one]	2.0	2.0		
CC(=O)OC1CC2CC1C1CC=CC21 (stereo not shown) [Material 281]	2.0	2.0		
CCC(=O)OC1CC2C3C=CCC3C1C2(C)C (stereo not shown) [8,8-dimethyl-3a,4,5,6,7,7a-hexahydro-1H-4,7-methanoinden-6-yl propionate]			1.5	2.2
CC1(C)CCc2ccc(CCC=O)cc21 [Material 261]	1.3	1.8		
COC(=O)OC1CC/C=C\CCC1 (stereo not shown) [Material 1139]	2.7	2.0		
CCCCCCCCCCCO [Undecanol]	2.3			
CC1(C)CCc2ccc(CCC=O)cc21 [Material 261, 3-(3,3-dimethyl-2,3-dihydro-1H-inden-5-yl)propanal]			1.5	2.7
CCCCCCCCCCCCO [Material 174]	2.3			
